Test [1] has as its target T1, PfENR (Plasmodium falciparum, UniProt Q9BH77).
T1 construct: The overexpression of PfENR was carried out [22]; made in house
The class given is biochemical. The note with it: triclosan with PfENR in presence of the catechin. As for the experimental part:
The reaction was started by the addition of 50 nM of PfENR.
The reaction was monitored at 340 nm and the formation of (NAD^+) was plotted as a function of time using equation 3 to get the dissociation constant by non-linear regression analysis of the data.
Progress curves gave the value of kobs and the k5 or association rate constants were determined by fitting the values of kobs with experimentally determined k6 values in equation 4.
The relationship between Ki, k5, k6 and kobs is described by equation 4.
The overall inhibition constant Ki* is calculated by equation 5.

Test [2] has as its target T2, Plasmodium falciparum enoyl-Acyl carrier protein (ACP) reductase (PfENR) (Plasmodium falciparum, UniProt Q9BH77).
T2 sequence (Q9BH77 22-432): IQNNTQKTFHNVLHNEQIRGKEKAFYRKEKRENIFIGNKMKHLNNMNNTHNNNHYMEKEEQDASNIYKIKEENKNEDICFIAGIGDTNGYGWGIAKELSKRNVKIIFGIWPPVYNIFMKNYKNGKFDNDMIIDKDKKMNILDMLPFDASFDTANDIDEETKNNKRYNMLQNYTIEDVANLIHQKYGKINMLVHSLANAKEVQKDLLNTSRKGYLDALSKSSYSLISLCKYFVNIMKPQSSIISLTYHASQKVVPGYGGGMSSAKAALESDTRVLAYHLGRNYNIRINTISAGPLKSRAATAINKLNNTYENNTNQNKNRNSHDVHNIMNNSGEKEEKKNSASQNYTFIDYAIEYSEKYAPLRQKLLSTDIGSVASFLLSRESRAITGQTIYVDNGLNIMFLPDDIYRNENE
As to the kind of experiment: biochemical. To be noted: for Ki: Dixon plot.
Protocol: Enzyme assays and inhibition studies were performed on a UV-Vis spectrophotometer (Jasco) at 25° C. in 20 mM Tris/HCl pH 7.4 containing 150 mM NaCl [13, 14]. The standard reaction mixture of 100 μl contained 200 μM crotonoyl-CoA, 100 μM NADH and 30 nM PfENR. All the inhibitors were dissolved in DMSO. 1% V/V DMSO was used in the standard reaction mixture. The reaction proceeds by reduction of crotonoyl-CoA to butyl-CoA with the oxidation of NADH to NAD^+ which is monitored at 340 nm (□∈^M340=6220 M−1 cm−1).
IC50 values of the tea catechins and polyphenolic compounds for PfENR were determined by plotting the percent inhibition of PfENR at various concentrations of inhibitory compounds. […] The percent activity thus calculated was plotted against log of concentration of respective catechins. The data was analyzed by nonlinear regression method using sigmoidal model and IC50 values for each catechin was calculated from the sigmoidal curve.
The sigmoidal curve indicates the best fit for the data.
Ki of individual catechins with respect to NADH and crotonoyl-CoA were determined in separate experiments. […] All the data were analyzed by Dixon plot [8].
All the data of individual experiments were repeated thrice and the mean value was taken for data analysis. The Ki values were determined for each experiment from the X-intercept of the Dixon plot [8].
The data were plotted using the following Dixon equations for competitive and uncompetitive kinetics, respectively.

A further test concerns P. falciparum culture. Nature of the test: Growth inhibition assay, [3H] hypoxanthine incorporation. It is filed as cell-based, Plasmodium falciparum. The text has this:
Culture media with or without inhibitors was changed daily. Parasites were synchronized at the ring stage with 5% D-sorbitol for all and the cultures were pooled at ring or trophozoite stage with 12-15% parasitemia. Free parasites were released from the red blood cells with 0.15% saponin.
The growth of P. falciparum was quantified by measuring the incorporation of [^3H] hypoxanthine.

For test [3], the target named is T3, human aldose reductase (ALR2) (Homo sapiens, UniProt P15121).
T3 construct: hexa-His (cleaved yes); made in house; host or cells: E. coli BL-21(DE3)
Nature of the test: Fluorescence quenching dissociation constants with aldose reductase. The class given is binding. The procedure: The cloning of human ALR2 gene was done as described before with slight modification. In brief, the open reading frame of the human AR2 gene (Accession GenBank/EMBL Data Bank number J05017) was amplified by the polymerase chain reaction from its cDNA and cloned into the T7 RNA polymerase-based vector pET28a(+) vector (Novagen). The positive clone was sequenced and then transformed into BL-21(DE3) cells for expression. The culture (5 L) was grown at 37° C. till OD600 of 0.8, induced by 1 mM IPTG and grown further at 37° C. for next 3 h. The cells were pelleted, sonicated and the clear supernatant was loaded to Ni-NTA resin. The purified hexa-His tagged human AR2 was subjected to thrombin cleavage and loaded […]. The His-tag cleaved AR2 was further loaded on DEAE Sephadex A-50 column (Pharmacia) and eluted with an NaCl gradient. The purity of the final enzyme preparation was checked on 12% SDS-PAGE.
Ki in all the four cased were calculated strictly using equations mentioned in Example 11.

The target of test [4] is T1, PfENR. The class given is binding. The note with it: 1 μM [3H]EGCG. As for the experimental part: Binding studies of [^3H] […] Briefly, for gel filtration chromatography, 2 ml Sephadex G-25 column was packed and equilibrated with the reaction buffer. For each run 50 μl of the reaction mixture was loaded and 20 fractions of 100 μl were collected at 0.25 ml/min flow rate. All the fractions were spotted on Whatman 3 filter paper and dried before taking the counts. In the filter binding assay method, the reaction mixtures were directly applied on the activated Polyvinylidene difluoride (PVDF) membrane fixed in a filtration assembly. The filters were washed with 200 μl of reaction buffer and dried. Dried filters were transferred to vials containing 5 ml scintillation fluid and the radioactivity measured using a Hewlett Packard liquid scintillation counter.
To check the binding of [^3H] […] The concentration of [^3H]
[^3H] […] (FIG. 4d) Double reciprocal plot of the same data is shown in the inset.
The binding constants for the above experiments were determined from saturation plots and by Scatchard plot or double reciprocal plot using equation 2a and 2b described under evaluation section.

For test [5], the target named is T1, PfENR. The class given is binding. To be noted: equation 7.
Protocol: The excitation and emission monochromator slit widths were adjusted at 3 nm. All the reactions were performed in 3 ml quartz cuvette with constant stirring at 25° C. For the binding studies, 4 μM PfENR was incubated with different tea compounds at their saturating concentrations in 20 mM tris and 150 mM NaCl, pH 7.4, excited at 295 nm and change in the fluorescence intensity at the emission maximum of PfENR (340 nm) was recorded.
For tight binding inhibitors k6 can be considered negligible at the early onset of inhibition. So, k5 can be directly calculated from the following equation [13],
The samples were excited at 290 nm and the emission was recorded at 340 nm.
Before calculating Ki and k5 from fluorescence data, the corrections for inner filter effect were made using equation 8.
For another test, the system named is E. coli O55:B5. Nature of the test: Survival of mice post bacterial infection. To be noted: BALB/c mice, 10^7 CFU E. coli O55:B5, D-galactosamine primed; triclosan 40 mg/kg, EGCG 50 mg/kg. The class given is in vivo, E. coli in BALB/c mice. The procedure:
Agents and Chemother. 12, 3859-3866 (2003) which is detailed below:—
Third group of animals received injections of both Triclosnan and ECGC as above. Controlled group was injected PBS and/or ethanol (500 μl).
For each experiment 6 BALB/c male mice, 6-9 week of age per group were used.
Infection of animals by bacteria: The animals were injected i.p or s.c with 0.4 ml of pyrogen free saline containing 10^7 CFU of bacteria (E. coli O55:B5) and primed with D-galactosamine (300 mg/kg of body weight); (Galanos at al. (1979) Proc. Natl. Acad. Sci. USA, 76, 5939-5943).
The mice was monitored for survival on an hourly basis.

Another test deals with P. berghei. As to the kind of experiment: Four day suppressive test, survival of P. berghei infected mice. It is filed as in vivo, P. berghei in Balb/c mice. The note with it: P. berghei infected Balb/c mice; triclosan 20 mg/kg, EGCG 30 mg/kg, 4 days. The procedure:
Randomly bred male Balb/c mice, 6 in numbers, weighing 22-25 grams were inoculated intravenously with 10 million P. berghei parasitized red blood cells. […] Giemsa-stained blood smears for 5 days and thereafter was prepared from the infected animals to assess percentage parasitemia. The survival of the mice was monitored for the following week.

The subject of test [6] is fatty acid synthesis in P. falciparum cultures. As to the kind of experiment: Incorporation of [14C] acetate into fatty acids in P. falciparum cultures. It is filed as cell-based. The note with it: Plasmodium falciparum. As for the experimental part:
Fatty acid synthesis in P. falciparum cultures and the effect of a 2′-dihydroxyphenyl ether indicated in formula 1 and 2 with or without flavonoid was evaluated by incorporating [14C] acetate into fatty acids [Surolia and Surolia Nature Medicine, (2001) 7, 167-173].

Setting [7] is: Ki in presence of TCL [nM], Ki of the catechin at 50 nM and 100 nM triclosan.
The mark [8] stands for this setting: Ki w.r.t. NADH [μM], competitive, NADH 50, 100, 200 μM, crotonoyl-CoA 200 μM.
Where [9] appears, read: Ki w.r.t. crotonoyl-CoA [μM], uncompetitive, NADH 100 μM.
Setting [10] is: Plasmodium falciparum, Erythrocyte, growth of malaria culture in red blood cells, read-out: IC50 on P. falciparum culture.
The mark [11] stands for this setting: binary complex, read-out: Ki with ALR2.

This is an account of results in patent US20080161247A1, “Synergistic composition for modulating activity of substrate analogs for NAD+, NADP+, NADH or NADPH dependent enzymes and process thereof” (priority 2006, published 2008).

Read-outs that look alike come from different tables or passages of the source.

For the compound `Oc1cc(O)c2c(c1)O[C@H](c1cc(O)c(O)c(O)c1)[C@H](O)C2` [EGC, (−) epigallocatechin], the “Association rate constant k5 of triclosan” value (“Association rate constant k5” below) on PfENR [1] is 5.4 ± 0.097 [10^−3]s^−1. Further, the figures for the IC50 (in [2]; in the test with P. falciparum culture (setting [10])) were 7000 ± 85 nM and 211000 nM, respectively. In addition, the Ki amounted to 17.6 ± 0.67 nM in [2] (setting [7]), 3750 ± 54 nM in test [2] (setting [8]) and 2000 ± 78 nM in [2] (setting [9]).

Regarding `O=c1c(O)c(-c2ccc(O)c(O)c2)oc2cc(O)cc(O)c12` [Quercetin, quercetin], on PfENR [1], the “Association rate constant k5” value is 3.1 ± 0.0786 [10^−3]s^−1. The IC50 in test [2] came to 2500 ± 78 nM; in the test with P. falciparum culture (setting [10]), 20700 nM. Moreover, the Ki in test [2] (setting [7]) is 22 ± 0.85 nM; in test [2] (setting [8]) it was 1090 ± 89 nM; in test [2] (setting [9]) it was 473 ± 11 nM.

On to `O=C(O[C@@H]1Cc2c(O)cc(O)cc2O[C@@H]1c1ccc(O)c(O)c1)c1cc(O)c(O)c(O)c1` [ECG, (−) epicatechin gallate], for which, on PfENR [1], the “Association rate constant k5” value is 6.3 ± 0.135 [10^−3]s^−1. The IC50 in test [2] amounted to 500 ± 16 nM; in the test with P. falciparum culture (Plasmodium falciparum, Erythrocyte, read-out: IC50 on P. falciparum culture) it was 4700 nM. Also, the Ki came out at 16 ± 0.45 nM in [2] (setting [7]), 291 ± 7.6 nM in test [2] (setting [8]) and 102 ± 4.6 nM in test [2] (setting [9]).

As to (−) epigallocatechin gallate [EGCG], in the test with P. falciparum culture (growth of malaria culture in red blood cells, read-out: IC50 on P. falciparum culture), the IC50 came to 191000 nM.

Turning to `O=CC(O)CO` (stereo not shown) [Glyceraldehyde, glyceraldehyde], the “fold decrease of Kd of glyceraldehyde by quercetin” value in [3] (2 μM quercetin) is on record as “more than 10 fold”. The Kd in test [3] (Kd of glyceraldehyde in the presence of quercetin, 2 μM quercetin) worked out at 40000 nM; in [3] (without quercetin, read-out: Kd of glyceraldehyde with aldose reductase), 510000 nM. Also, the Ki in [3] (setting [11]) is 510000 ± 54000 nM.

`CCN(CC)CCCC(C)Nc1ccnc2cc(Cl)ccc12` (stereo not shown) [chloroquine, reference compound]: the IC50 with P. falciparum culture (Plasmodium falciparum, read-out: IC50 for chloroquine, strain MP-14) worked out at 300 nM; with P. falciparum culture (Plasmodium falciparum, read-out: IC50 of chloroquine, strain FCK2) it was 18 nM.

With `Oc1cc(Cl)ccc1Oc1ccc(Cl)cc1Cl` [Triclosan, 5-chloro-2-(2,4-dichlorophenoxy)phenol], on PfENR [4], the “Association constant of triclosan, double reciprocal plot” value was determined as 14 ± 0.77 µM⁻¹ and the “Association constant of triclosan, saturation kinetics” value was found to be 22.18 ± 1.7 µM⁻¹. At PfENR [5], the “k5 of triclosan in presence of EGCG from slow decrease of fluorescence” value is 0.0072±0.84×10^−5 s^−1. Besides, in the test on E. coli O55:B5, the “Survival Time” value came out at 45 ± 6 h. In the test with P. berghei, the “Mice surviving from a group of 6 on Day 6” value came out at 3 ± 1 and the “Mice surviving from a group of 6 on Day 12” value was determined as 1 ± 1. This compound also registered an inhibition at 9 µM in [6] of 90%.

Regarding `O=C(/C=C/c1ccc(O)c(O)c1)c1ccc(O)cc1O` [Buteine, butein], the “Association rate constant k5” value on PfENR [1] was 2.1 ± 0.108 [10^−3]s^−1. In addition, the half-inhibitory concentration (IC50) is 12500 ± 670 nM in test [2] and 49700 nM with P. falciparum culture (setting [10]). The Ki came out at 14 ± 0.57 nM in [2] (setting [7]), 5500 ± 100 nM in [2] (setting [8]) and 2970 ± 77 nM in [2] (setting [9]).

`O=CC1CCCCC1` [1-Cyclohexylaldehyde]: the Ki in test [3] (setting [11]) was determined as 330000 ± 45000 nM; in test [3] (read-out: Ki value in the presence of quercetin, 2 μM quercetin preincubated) it was 14.1 ± 3.1 nM.
